Assay results taken from ChEMBL document CHEMBL1144908, “5-HT4 receptor ligands: applications and new prospects” (J Med Chem, 2003).

Key:
[1] = target: 5-hydroxytryptamine receptor 4 (Rattus norvegicus) (UniProt Q62758); assay: Tested for affinity towards 5-hydroxytryptamine 4 receptor in relaxation of rat oesophagus
[2] = target: Serotonin 3 (5-HT3) receptor; assay: (§1) Compound was tested for 5-hydroxytryptamine 3 receptor binding affinity; format: protein-complex assay
[3] = target: 5-hydroxytryptamine receptor 4 (Cavia porcellus) (UniProt O70528); assay: Tested for affinity towards 5-hydroxytryptamine 4 receptor in electrically stimulated longitudinal muscle preparation of guinea pig ileum; format: tissue-based
Sequence of 5-hydroxytryptamine receptor 4 (Cavia porcellus) (O70528 whole entry): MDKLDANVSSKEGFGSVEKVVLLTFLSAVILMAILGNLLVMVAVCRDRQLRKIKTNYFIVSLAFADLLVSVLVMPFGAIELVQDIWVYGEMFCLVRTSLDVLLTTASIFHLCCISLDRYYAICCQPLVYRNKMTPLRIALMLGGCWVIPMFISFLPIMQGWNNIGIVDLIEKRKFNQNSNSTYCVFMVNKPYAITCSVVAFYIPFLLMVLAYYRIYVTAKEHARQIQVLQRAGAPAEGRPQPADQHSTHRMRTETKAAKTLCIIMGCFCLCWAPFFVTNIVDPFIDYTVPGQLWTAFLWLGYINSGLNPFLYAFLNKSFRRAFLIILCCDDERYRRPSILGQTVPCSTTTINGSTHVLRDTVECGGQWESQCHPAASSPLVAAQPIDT

[4] = target: 5-hydroxytryptamine receptor 4 (Cavia porcellus) (UniProt O70528); assay: Tested for affinity towards 5-hydroxytryptamine 4 receptor in guinea pig distal colon preparation; format: tissue-based
[5] = target: T1, 5-hydroxytryptamine receptor 3A (Homo sapiens, UniProt P46098); assay: Tested for 5-hydroxytryptamine 3 receptor agonist activity; format: functional
T1 sequence (P46098 whole entry): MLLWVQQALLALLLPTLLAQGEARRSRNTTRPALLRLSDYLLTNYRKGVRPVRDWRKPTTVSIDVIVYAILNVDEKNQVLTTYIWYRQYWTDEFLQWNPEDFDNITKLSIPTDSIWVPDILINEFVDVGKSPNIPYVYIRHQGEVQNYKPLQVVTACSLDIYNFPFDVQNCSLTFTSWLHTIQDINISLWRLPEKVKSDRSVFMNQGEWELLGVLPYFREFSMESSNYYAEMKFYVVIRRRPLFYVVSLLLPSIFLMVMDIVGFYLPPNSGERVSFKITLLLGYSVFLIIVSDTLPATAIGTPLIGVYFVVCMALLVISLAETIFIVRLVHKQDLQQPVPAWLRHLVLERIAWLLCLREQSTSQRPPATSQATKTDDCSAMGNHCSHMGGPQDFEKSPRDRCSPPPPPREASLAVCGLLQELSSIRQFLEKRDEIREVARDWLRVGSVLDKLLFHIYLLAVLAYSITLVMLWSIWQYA

[6] = Tested for potency against electrically stimulated myenteric plexus; format: functional
[7] = species: Rattus norvegicus; assay: Tested for affinity towards 5-HT receptor in relaxation of carbachol contracted rat oesophaga muscularis; format: functional
[8] = species: Cavia porcellus; assay: Tested for inhibitory activity against 5-HT induced contractions of guinea pig ileum; format: functional
[9] = target: 5-hydroxytryptamine receptor 4 (Mus musculus) (UniProt P97288); assay: Tested for 5-hydroxytryptamine 4 binding affinity against zacopride
Sequence of 5-hydroxytryptamine receptor 4 (Mus musculus) (P97288 whole entry, looked up): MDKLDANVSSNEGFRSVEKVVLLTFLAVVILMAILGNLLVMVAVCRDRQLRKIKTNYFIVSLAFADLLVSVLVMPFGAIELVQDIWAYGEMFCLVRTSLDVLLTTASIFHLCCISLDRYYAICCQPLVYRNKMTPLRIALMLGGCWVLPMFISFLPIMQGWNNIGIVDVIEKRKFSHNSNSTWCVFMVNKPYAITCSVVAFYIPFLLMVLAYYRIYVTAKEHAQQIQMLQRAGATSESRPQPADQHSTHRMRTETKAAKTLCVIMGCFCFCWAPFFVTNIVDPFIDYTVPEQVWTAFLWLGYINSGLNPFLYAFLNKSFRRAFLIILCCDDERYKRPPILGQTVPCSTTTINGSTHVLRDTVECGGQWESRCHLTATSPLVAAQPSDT

[10] = target: 5-hydroxytryptamine receptor 4 (Mus musculus) (UniProt P97288); assay: Tested for 5-hydroxytryptamine 4 binding affinity against cisapride
[11] = target: 5-hydroxytryptamine receptor 4 (Mus musculus) (UniProt P97288); assay: Tested for 5-hydroxytryptamine 4 binding affinity against renzapride
[12] = target: 5-hydroxytryptamine receptor 4 (Rattus norvegicus, UniProt Q62758); assay: Efficient 5-hydroxytryptamine 4 agonist in the rat tunica muscularis mucosae; format: functional, tissue-based, Muscularis mucosa
Sequence of 5-hydroxytryptamine receptor 4 (Rattus norvegicus, UniProt Q62758) (Q62758 whole entry): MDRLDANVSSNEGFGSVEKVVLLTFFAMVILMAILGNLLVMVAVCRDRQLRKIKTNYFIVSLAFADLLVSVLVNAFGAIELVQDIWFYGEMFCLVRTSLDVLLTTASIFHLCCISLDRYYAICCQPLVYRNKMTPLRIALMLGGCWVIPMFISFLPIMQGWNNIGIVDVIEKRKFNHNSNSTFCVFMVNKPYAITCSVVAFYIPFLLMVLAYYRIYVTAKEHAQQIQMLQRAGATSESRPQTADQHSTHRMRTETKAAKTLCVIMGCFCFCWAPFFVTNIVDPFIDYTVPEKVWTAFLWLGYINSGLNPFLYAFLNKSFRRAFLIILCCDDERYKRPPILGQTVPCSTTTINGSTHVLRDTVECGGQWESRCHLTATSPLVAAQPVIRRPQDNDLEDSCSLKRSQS

[13] = target: T1, 5-hydroxytryptamine receptor 3A; assay: as §1
[14] = target: T2, 5-hydroxytryptamine receptor 4 (Homo sapiens, UniProt Q13639); assay: Tested for affinity towards 5-hydroxytryptamine 4 receptor.
T2 sequence (Q13639 whole entry): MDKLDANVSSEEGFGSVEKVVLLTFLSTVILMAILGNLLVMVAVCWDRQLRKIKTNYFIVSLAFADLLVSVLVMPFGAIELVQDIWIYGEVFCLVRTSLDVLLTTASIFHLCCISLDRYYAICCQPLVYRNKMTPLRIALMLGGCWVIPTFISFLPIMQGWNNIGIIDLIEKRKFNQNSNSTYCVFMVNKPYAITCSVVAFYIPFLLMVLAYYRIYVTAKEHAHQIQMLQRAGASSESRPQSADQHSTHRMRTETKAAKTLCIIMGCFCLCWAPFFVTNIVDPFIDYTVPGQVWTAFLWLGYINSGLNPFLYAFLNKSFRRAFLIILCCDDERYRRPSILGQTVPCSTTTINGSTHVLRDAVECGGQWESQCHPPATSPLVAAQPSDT

[15] = target: 5-hydroxytryptamine receptor 4 (Cavia porcellus, UniProt O70528); assay: Tested for affinity against 5-hydroxytryptamine 4 receptor in the myenteric plexus of the guinea pig ileum.; format: tissue-based
Sequence of 5-hydroxytryptamine receptor 4 (Cavia porcellus, UniProt O70528) (O70528 whole entry): as the sequence (O70528 whole entry) above

[16] = target: T2, 5-hydroxytryptamine receptor 4; assay: (§2) Tested for 5-hydroxytryptamine 4 receptor antagonist activity; format: functional
[17] = target: T2, 5-hydroxytryptamine receptor 4; assay: as §2; format: functional; remark: listed apart in the source
[18] = target: T2, 5-hydroxytryptamine receptor 4; assay: as §2; format: functional; remark: listed apart in the source
[19] = target: Serotonin 3 (5-HT3) receptor; assay: Tested for 5-hydroxytryptamine 3 receptor antagonist activity; format: functional

Sequence of 5-hydroxytryptamine receptor 4 (Rattus norvegicus) (Q62758 whole entry): as the sequence (Q62758 whole entry) above

## COc1cc(N)c(Cl)cc1C(=O)CCC1CCN(CCNS(C)(=O)=O)CC1
[1]
  Activity: 8.6 pEC50

## COc1cc(N)c(Cl)cc1C(=O)NC1CCN(CCCOc2ccc(F)cc2)CC1OC (centres undefined) [CISAPRIDE]
[2]
  Ki: 152 nM

## CCCCCNC(=N)N/N=C/c1c[nH]c2ccc(O)cc12
[3]
  Activity: 9.3 pD2

## O=C(NCC1CCN2CCCCC2C1)c1c2n(c3ccccc13)CCCO2 (centres undefined)
[4]
  Activity: 9.5 pIC50

## Nc1cc2c(cc1Cl)C(=O)NC1CCN(CCOCCO2)CC1
[5]
  Ki: 53.2 nM
[6]
  EC50: 69 nM

## CCCCN1CCC(CCC(=O)c2cc(Cl)c(N)cc2OC)CC1
[1]
  Activity: 8.4 pEC50

## COc1cc(COc2cc(N)c(Cl)cc2C(=O)CCCCN2CCCCC2)cc(OC)c1
[7]
  Activity: 8.5 pKi

## CCCCCN(C)C(=N)N/N=C/c1c[nH]c2c(C)cc(OC)cc12
[8]
  Activity: 8.4 pA2

## COc1cc(N)c(Cl)cc1C(=O)NC1CC2CCC(C1)N2C (centres undefined)
[9]
  EC50: 1120 nM
[10]
  EC50: 72.4 nM
[11]
  EC50: 126 nM

## CCCCCNC(=N)N/N=C/c1c[nH]c2ccc(OC)cc12
[3]
  Activity: 6.9 pD2

## COc1cc(N)c(Cl)cc1C(=O)NC[C@@H]1CCN2CCC[C@@H]12
[12]
  EC50: 23.7 nM
[13]
  Ki: 152 nM

## COc1cc(N)c(Cl)cc1C(=O)NC1CCN2C(C)CCCC2C1 (centres undefined) [BRL-20627]
[9]
  EC50: 1120 nM
[10]
  EC50: 72.4 nM
[11]
  EC50: 126 nM

## CCCCN1CCC(CNC(=O)c2cc(Cl)c(N)c3c2OCCO3)CC1
[14]
  Activity: 9 pKa

## CCOc1cc(N)c(Cl)cc1C(=O)NCC1CN(Cc2ccc(F)cc2)CCO1 (centres undefined) [MOSAPRIDE]
[15]
  Ki: 84 nM

## CC(C)N1CCN(CCNC(=O)n2c(=O)n(C3CC3)c3ccccc32)CC1
[16]
  Ki: 16.6 nM
[17]
  Ki: 6.7 nM

## CC(C)n1c(=O)n(C(=O)NCCN2CCN(C)CC2)c2ccccc21
[17]
  Ki: 91.9 nM
[18]
  Intrinsic activity: 0.94

## N=C(N)N/N=C/c1c[nH]c2ccc(O)cc12
[3]
  Activity: 8.8 pD2

## CCCCN1CCC(COC(=O)c2c3n(c4ccccc24)CCCO3)CC1
[4]
  Activity: 10.6 pIC50

## COc1cc(COc2cc(N)c(Cl)cc2C(=O)CCC2CCN(CCNS(C)(=O)=O)CC2)cc(OC)c1
[7]
  Activity: 9.2 pKi

## CCCCN1CCC(CNC(=O)c2c3n(c4ccccc24)CCCO3)CC1
[4]
  Activity: 9.2 pIC50

## CNC1(CNC(=O)c2cc(Cl)c(N)cc2OC)CCCC1
[19]
  Ki: 9 nM
